Source: US12640239B2, “Functional biomarkers for statin therapy in age-related macular degeneration (AMD)” (APELIOTUS TECHNOLOGIES, INC., priority 2017, dated 2026)

What was measured:
[1] = system: AMD patients; assay: Fundus and OCT imaging: drusen resolution, retinal thickness and volume; type: in vivo, human; settings: for Average retinal thickness / Average total volume (retina) / Retinal thickness, maximum / Retinal thickness, minimum: Patient 2, atorvastatin 80 mg/day; for OCT retinal imaging finding: Patient 5, atorvastatin 80 then 20 mg/day, April 2018 vs January 2014
Text: (§1) The patient was asked to report any perceived changes in visual function during the course of the treatment. […] The self-reported improvement was confirmed at months 15 and 22 of treatment. […] The resolution of the drusen was confirmed by fundus photography and optical coherence tomography (OCT) imaging.
Table 2 provides detailed information regarding patients 1 to 7, including the baseline diagnosis (diagnosis made when starting statin therapy), ending diagnosis (the diagnosis made on the date of the last referenced evaluation), the results of evaluations performed on each patient, and whether the patient responded to statin therapy. The dark adaptation data in this Example is the rod intercept time (or RI time) reported in minutes. In this Example, the dark adaptation data was collected using the AdaptDx® Dark Adaptometer (MacuLogix, Middletown, PA) running its standard Extended Test protocol. […] Data is automatically analyzed by the AdaptDx Dark Adaptometer to provide an RI time based on recovery to a criterion sensitivity level of 5×10^−3 scotopic cd/m^2. […] The visual acuity data was collected using a standard Snellen or ETDRS eye chart with the results presented using the standard 20/20 vision scale. Drusen resolution was determined by evaluation of fundus and OCT imaging by qualified clinicians experienced in AMD evaluation. Fundus and OCT imaging data was collected using the Heidelberg Engineering Spectralis® SD-OCT (Heidelberg, Germany) or the Karl Zeiss Meditec Cirrus® HD-OCT (Jena, Germany), in both cases running standard protocols with automated data analysis performed by the instruments.
The baseline diagnosis and ending diagnosis are the result of clinical assessment by qualified clinicians experienced in evaluation of AMD patients. The clinical assessment was carried out utilizing standard ophthalmic testing, such as, but not limited to, slit-lamp biomicroscopy (including looking for evidence of drusen and pigmentary changes), fundus and OCT imaging (including looking for evidence of drusen and pigmentary changes and calculation of retinal volume and retinal thickness), and testing with a Snellen or ETDRS eye chart (including looking for visual acuity changes that might indicate a change in disease status). Dark adaptation results were not used in the clinical assessment of the baseline or ending diagnosis.

[2] = system: patient having intermediate AMD; assay: Patient self-report of perceived changes in visual function during statin treatment; type: in vivo, human
Text: The patient was asked to report any perceived changes in visual function during the course of the treatment.
as §1

[3] = system: AMD patients; settings: high-dose atorvastatin; Vavvas et al., 2016; cited from earlier work

Compound: CC(C)c1c(C(=O)Nc2ccccc2)c(-c2ccccc2)c(-c2ccc(F)cc2)n1CC[C@@H](O)C[C@@H](O)CC(=O)O [atorvastatin]
- Drusen resolution ([1]; Example 1: adult female, intermediate AMD, oral atorvastatin increasing to 80 mg per day over six months): eventual resolution of the drusen
- Drusen resolution (ophthalmic examination, fundus photography, OCT) ([1]; Example 2: adult person, intermediate AMD, oral atorvastatin 10 to 80 mg per day, month 15): substantially complete resolution of the drusen
- Average retinal thickness ([1]; left eye, August 2016 OCT): 193 µm
- Average total volume (retina) ([1]; left eye, August 2016 OCT): 8.2 mm^3
- Retinal thickness, maximum ([1]; left eye, August 2016 OCT): 291 µm
- Retinal thickness, minimum ([1]; left eye, August 2016 OCT): 191 µm
- Average retinal thickness ([1]; left eye, February 2016 OCT): 364 µm
- Average total volume (retina) ([1]; left eye, February 2016 OCT): 8.45 mm^3
- Retinal thickness, maximum ([1]; left eye, February 2016 OCT): 457 µm
- Retinal thickness, minimum ([1]; left eye, February 2016 OCT): 217 µm
- Average retinal thickness ([1]; right eye, August 2015 OCT): 179 µm
- Average total volume (retina) ([1]; right eye, August 2015 OCT): 8.49 mm^3
- Retinal thickness, maximum ([1]; right eye, August 2015 OCT): 461 µm
- Retinal thickness, minimum ([1]; right eye, August 2015 OCT): 176 µm
- Average retinal thickness ([1]; right eye, December 2015 OCT): 199 µm
- Average total volume (retina) ([1]; right eye, December 2015 OCT): 8.23 mm^3
- Retinal thickness, maximum ([1]; right eye, December 2015 OCT): 332 µm
- Retinal thickness, minimum ([1]; right eye, December 2015 OCT): 170 µm
- OCT retinal imaging finding ([1]; pravastatin 20 mg/day from April 2018, left eye): development of a PED
- OCT retinal imaging finding ([1]; pravastatin 20 mg/day from April 2018, right eye): increased drusen accumulation with possible increase in drusen size
- Drusen resolution ([1]; Patient #1, atorvastatin 20 to 80 mg/day, OU, month 59 (June 2018)): No indication of drusen resolution OU
- Decrease in retina volume ([1]; Patient #2, atorvastatin 80 mg/day, OD, month 35 (December 2015 vs August 2015)): volume of 0.26 mm^3
- Decrease in retina volume ([1]; Patient #2, atorvastatin 80 mg/day, OS, month 43 (August 2016 vs February 2016)): volume of 0.25 mm^3
- SDD resolution ([1]; Patient #3, atorvastatin 80 mg/day, OU, month 19 (May 2018)): No indication of SDD resolution OU
- Drusen resolution ([1]; Patient #4, atorvastatin 80 mg/day, OU, month 3 (August 2018)): No indication of drusen resolution OU
- Drusen resolution ([1]; Patient #5, atorvastatin 80 mg/day (suspended January 2015-February 2016), then 20 mg/day, pravastatin 20 mg/day from April 2018, OU, month 51 (April 2018)): No indication of drusen resolution OU
- Decrease in retina volume ([1]; Patient #6, atorvastatin 80 mg/day, OD, month 9 (August 2018)): volume of 0.09 mm^3
- Decrease in retina volume ([1]; Patient #6, atorvastatin 80 mg/day, OS, month 9 (August 2018)): volume of 0.1 mm^3
- Drusen resolution ([1]; Patient #6, atorvastatin 80 mg/day, OU, month 9 (August 2018)): Initial signs of drusen resolution OU
- Drusen resolution ([1]; Patient #7, atorvastatin 10 to 20 mg/day, OU, month 27 (July 2018)): No indication of drusen resolution OU
- Self-reported change in contrast sensitivity ([2]; Example 1: adult female, oral atorvastatin increasing to 80 mg per day over six months, no objective testing): improvement in contrast sensitivity
- Self-reported change in dark adaptation ([2]; Example 2: adult person, oral atorvastatin 10 to 80 mg per day for 23 months, month 7, confirmed at months 15 and 22, no objective testing): improvement in dark adaptation
- Patients treated with disappearance of drusen deposits and improvement in vision [3]: 43%
